# In publication PMC5967236 (Angewandte Chemie (International ed. in English), 2017):
# Assays:
# [1] = test system: all cellular proteins in MOLM-13 cells; test: whole-cell lysate proteomics; type: cell-based, human; conditions: 100 nM for 2 hours
# [2] = test system: human AML lines (EOL-1, MOLM-13, MV4;11); test: viability of human AML lines, 7 days; type: cell-based
# MOLM-13 = test: viability of MOLM-13; type: cell-based, human; conditions: MOLM-13 transduced with wild type BRD9
# MM.1S line = test: activity in MM.1S line; type: cell-based; conditions: multiple myelome derived line
# [3] = test system: IKZF family of linage specific transcription factors; test: activity against IKZF family transcription factors; type: cell-based
# BRD4 = BRD4 (Homo sapiens, UniProt O60885); test: BRD4 immunoblot in MOLM-13 cells; conditions: MOLM-13, 4hr, western blot
# BRD7 = target: T1, BRD7 (Homo sapiens, UniProt Q9NPI1); test: BRD7 immunoblot in MOLM-13 cells; conditions: MOLM-13, 4hr, western blot
# T1 sequence (Q9NPI1 1-651): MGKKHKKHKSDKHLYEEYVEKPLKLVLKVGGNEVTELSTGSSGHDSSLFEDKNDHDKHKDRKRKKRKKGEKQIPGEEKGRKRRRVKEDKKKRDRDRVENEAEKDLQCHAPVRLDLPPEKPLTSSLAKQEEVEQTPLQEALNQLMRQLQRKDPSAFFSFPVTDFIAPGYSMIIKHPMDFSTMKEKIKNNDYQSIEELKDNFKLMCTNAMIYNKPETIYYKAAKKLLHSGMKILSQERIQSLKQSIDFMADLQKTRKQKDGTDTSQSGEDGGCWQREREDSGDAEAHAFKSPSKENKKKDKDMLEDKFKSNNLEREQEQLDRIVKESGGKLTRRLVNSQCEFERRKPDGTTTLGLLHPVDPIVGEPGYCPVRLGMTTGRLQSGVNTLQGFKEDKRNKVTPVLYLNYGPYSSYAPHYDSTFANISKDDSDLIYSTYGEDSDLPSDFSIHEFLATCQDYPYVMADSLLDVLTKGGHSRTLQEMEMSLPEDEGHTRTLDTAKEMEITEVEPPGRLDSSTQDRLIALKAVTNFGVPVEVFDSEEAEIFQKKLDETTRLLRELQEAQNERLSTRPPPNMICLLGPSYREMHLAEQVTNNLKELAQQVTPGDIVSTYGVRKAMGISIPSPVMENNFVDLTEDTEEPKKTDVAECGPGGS
# [4] = test system: IKZF family of linage specific transcription factors; conditions: cited from earlier work
Structure (SMILES),change in BRD4 or BRD7 levels [1],difference in levels of other proteins (99% of proteins) [1],"anti-proliferative effect ([2]; EOL-1, MOLM-13, MV4;11, 7 days)",half-maximal anti-proliferative concentration ([2]; human AML lines),sensitivity with viral expression of exogenous wild type BRD9 (MOLM-13),activity in MM.1S (MM.1S line),activity against IKZF family [3],off target degradation activity on BRD4 (BRD4),off target degradation activity on BRD7 (BRD7),"activity against IKZF family, earlier report [4]"
COc1cc(-c2cn(C)c(=O)c3cnccc23)cc(OC)c1CN(C)CC(=O)NCCOCCOCCNc1cccc2c1C(=O)N(C1CCC(=O)NC1=O)C2=O (stereo not shown) [dBRD9],no significant change,less than 0.30 fold,potent anti-proliferative effect,low nanomolar,"shifted sensitivity, but to an intermediate degree",dBRD9 sensitive,retain activity,not detectable,not detectable,–
Cc1sc2c(c1C)C(c1ccc(Cl)cc1)=N[C@@H](CC(=O)NCCCCNC(=O)COc1cccc3c1C(=O)N(C1CCC(=O)NC1=O)C3=O)c1nnc(C)n1-2 (stereo partly shown) [dBET-1],–,–,–,–,–,–,–,–,–,not previously observed
